This is an account of results in patent EP0397914A1 (priority 1989, dated 1990).

Several values for one entry are separate records, joined by “and”; a condition that tells them apart may be missing. Equal entries are not always repeated.

Series [1] can be described thus: Acute toxicity (LD50) in mice. As to conditions: mouse, in vivo, ip; intraperitoneal injection, male ICR mice (6 weeks old), after one week; read-out: LD₅₀. How it is done: Epigallocatechin gallate was orally administered to male ICR mice (6 weeks old). LD₅₀ of them after one week was 2314 mg/kg. In another case, epigallocatechin gallate was administered to male ICR mice (6 weeks old) by intraperitoneal injection. LD₅₀ of them after one week was 150 mg/kg.

Series [2] deals with S toxin of A type toxins produced by Clostridium botulinum (Clostridium botulinum, UniProt P0DPI0). As to conditions: in vivo, iv.
The target in series [3] is M toxin of A type toxins produced by Clostridium botulinum (Clostridium botulinum, UniProt P0DPI0). The note with it: in vivo, iv.

For the molecule `O=C(O[C@@H]1Cc2c(O)cc(O)cc2O[C@@H]1c1cc(O)c(O)c(O)c1)c1cc(O)c(O)c(O)c1` [epigallocatechin gallate, (-) epigallocatechin gallate], the LD50 at 168 h in series [1] is 150 mg/kg.

In the case of `O=c1c(O)cc([C@H]2Oc3cc(O)cc(O)c3C[C@H]2O)cc2c([C@H]3Oc4cc(O)cc(O)c4C[C@H]3O)cc(O)c(O)c12` [free theaflavin], the “Remaining toxic activity (%)” value in series [2] was 4.4% and 6.1%; in series [3], 9.9% and 7.6%.
